{
  "source": "patent US20070032460A1",
  "about": "“Use of voacamine and related compounds in the treatment of malaria” (priority 2005, published 2007)",
  "origin": "cited, not measured here",
  "test_system": "multi-drug resistant tumor cells",
  "conditions": "cited from earlier work",
  "data": [
    {"smiles": "CC=C1CN(C)C2Cc3c([nH]c4ccccc34)C(c3cc4[nH]c5c(c4cc3OC)CCN3CC4CC(CC)C3C5(C(=O)OC)C4)CC1C2C(=O)OC", "note": "(stereo not shown) [VOA, Voacamine]", "values": [
      {"measurement": "effect on vinblastine-mediated cytotoxicity", "value": "enhance vinblastine-mediated cytotbxicity"}
    ]}
  ]
}
